One may read the inhibition as the drop in the measured response relative to a control, in per cent. A high value points to a strong effect.

The record followed here is patent US20160338935A1, “PROCESS FOR THE PURIFICATION OF HEPARAN SULFATE AND USE THEREOF IN COSMETOLOGICAL AND DERMATOLOGICAL PREPARATIONS” (LABORATORI DERIVATI ORGANICI SPA, priority 2008, published 2016).

For one experiment, the system named is melanoma cells B16. Nature of the experiment: In vitro bleaching (whitening) activity: melanin content on melanoma cells B16. Type of experiment: cell-based. As for the experimental part:
The in vitro whitening effect of HS was detected by measurement of melanin content on melanoma cells B16 (fibroblast-like cells able to produce melanin) after 6 days of contact with HS at 2 different concentrations: 0.1 mg/ml (0.01%) and 0.05 mg/ml (0.005%).
The negative control (NC) was represented by untreated cells (cell without any substance). The positive control (PC) was represented by cells treated with Hydroquinone 5 μg/ml (0.0005%).

The test system of experiment [1] is human keratinocytes cell cultures. The experiment in a line: In vitro anti-oxidant activity against UVA: ROS reduction on human keratinocytes cell cultures. The note with it: for inhibition at 150 µg/mL: Homo sapiens, Keratinocyte, light or radiation study, Vit C 0.15 mg/ml. Type of experiment: cell-based. The procedure:
In vitro Evaluation of the anti-ageing activity of cosmetic products through the investigation of their anti-oxidant and protective activity against UVA on human keratinocytes cell cultures. The antioxidant effect of HS is detected by measurement of reduction of free radicals as Reactive Oxygen Species (ROS) after exposure to 3 different UVA irradiation for 1 minute and 30 seconds (1′ 30″), for 3 minutes (3′) and for 4 minutes and 30 seconds (4′ 30″), with HS at 7 different concentrations: 0.031 mg/ml (0.0031%), 0.063 mg/ml (0.0063%), 0.125 mg/ml (0.0125%), 0.250 mg/ml (0.0250%), 0.500 mg/ml (0.0500%), 1.000 mg/ml (0.1000%) and […]. The negative control (NC) was: untreated cells (cells without any substance). The positive control (PC) was: Vitamin C (0.15 mg/ml) (0.015%).

In a further experiment the test system is fibroblast cells. Nature of the experiment: In vitro mitogenic activity: fibroblast cells proliferation and protein synthesis. In kind it is cell-based. The procedure:
The mitogenic effect of HS is detected by measurement of fibroblast cells proliferation, measurement of protein synthesis after exposure for 48 hours and 72 hours, using HS at 2 different concentrations: 0.1 mg/ml (0.01%) and 0.05 mg/ml (0.005%). The negative control (NC) is represented by untreated cells, the positive control (PC) is: EGF (Epidermal Growth Factor) (10 μg/ml) (0.001%).

A further experiment concerns basophil cells. Nature of the experiment: In vitro degranulation test on basophil cells (release of β-hexosaminidase). In kind it is cell-based. As for the experimental part:
Basophil cells, when come in contact with irritant substances, give their biochemical response that is the secretion (by degranulation) of substances (such as histamine, leukotriens, proteolytic enzymes as hexosaminidase) that contribute to inflammatory events.
Inhibition in basophil cells degranulation is a measure of lenitive (anti-itching) effect of a substance. The in vitro lenitive effect of HS was detected by measurement of the release of β-hexosaminidase after 2 h of contact with HS at 4 different concentrations: 10 mg/ml (1%), 5 mg/ml (0.5%), 1 mg/ml (0.1%), 0.2 mg/ml (0.02%).
The negative control (NC) was represented by untreated cells (cells without any substance). The positive control (PC) was represented by basophil degranulation stimuli (by crosslinking the receptor FcεRI with a specific polyclonal antibody against to the α-chain stimulate the degranulation). The maximal stimulation (degranulation) is: cell treated with 1% Triton X-100. […]

The nature of experiment [2]: APTT (European Pharmacopeia, 4th edition). The note with it: purified heparan sulfate. The procedure: Organic sulfur, Uronic acid, Glucosamine, Optical rotation, total nitrogen and APTT were measured in accordance with the European Pharmacopeia, 4th edition. Electrophoresis was performed in accordance with R. Cappelletti et al. “A new Electrophoretic method for the separation of all Gags” Anal. Biochem. 99:311-315 (1979).

Setting [3] is: Hydroquinone 0.0005% (5 μg/ml), positive control.
[4] abbreviates: HS 0.005% (0.05 mg/ml), 6 days of contact.
Where [5] appears, read: HS 0.01% (0.1 mg/ml), 6 days of contact.

Regarding `Oc1ccc(O)cc1` [Hydroquinone, reference compound], in the experiment on melanoma cells B16 (setting [3]), the “% Melanin Synthesis Inhibition vs NC” value is listed as 76.8% and the “Melanin Content (μg melanin/mg protein)” value is on record as 10.8 μg melanin/mg protein.
With `O=C1O[C@H]([C@@H](O)CO)C(O)=C1O` [Vit C, Vitamin C, reference compound], the inhibition at 150 µg/mL was found to be 33.5% in experiment [1] (1′30″ UVA), 31.4% in experiment [1] (3′00″ UVA) and 12.7% in experiment [1] (4′30″ UVA).
As to “EGF: EGF (Epidermal Growth Factor), positive control [reference compound]”, in the experiment with fibroblast cells (48 h, EGF 10 μg/ml (0.001%)), the “% cell proliferation vs NC” value is 112.5% and the “% protein synthesis vs NC” value was found to be 116.6%. Besides, in the experiment on fibroblast cells (72 h, EGF 10 μg/ml (0.001%)), the “% cell proliferation vs NC” value stood at 121.6% and the “% protein synthesis vs NC” value was 119.0%.
Triton X-100 [reference compound]: the “release of β-hexosaminidase OD at 450 nm” value in the experiment on basophil cells (maximal stimulation: 1% Triton X-100) came to 0.377 OD.
The compound heparan sulphate sodium salt [HS] gave an APTT in experiment [2] of 6.31 U/mg. Moreover, in the experiment with melanoma cells B16 (0.1 and 0.05 mg/ml, 6 days), the “in vitro whitening effect” value was “shows in vitro whitening effect”. Besides, the “% Melanin Synthesis Inhibition vs NC” value in the experiment with melanoma cells B16 (setting [4]) came out at 5.2%; in the experiment with melanoma cells B16 (setting [5]) it was 10.3%. For the same compound, the entries for the “Melanin Content (μg melanin/mg protein)” value in the experiment on melanoma cells B16 (setting [4]) and with melanoma cells B16 (setting [5]) were 44.4 μg melanin/mg protein and 41.9 μg melanin/mg protein, respectively. Also, the “release of β-hexosaminidase OD at 450 nm” value with basophil cells (HS 0.2 mg/ml + PC (degranulation stimulus)) was 0.112 OD; in the experiment on basophil cells (HS 0.2 mg/ml alone, 2 h of contact), 0.061 OD; in the experiment on basophil cells (HS 1 mg/ml + PC (degranulation stimulus)) it was 0.110 OD; in the experiment with basophil cells (HS 1 mg/ml alone, 2 h of contact) it was 0.062 OD; in the experiment with basophil cells (HS 5 mg/ml + PC (degranulation stimulus)), 0.055 OD; in the experiment on basophil cells (HS 5 mg/ml alone, 2 h of contact), 0.059 OD. For the same compound, the “release of β-hexosaminidase OD at 450 nm” value with basophil cells (HS 10 mg/ml + PC (degranulation stimulus)) was determined as 0.061 OD; in the experiment with basophil cells (HS 10 mg/ml alone, 2 h of contact) it was 0.066 OD. For the same compound, the “level of β-hexosaminidase with irritant substance (positive control) and HS” value in the experiment with basophil cells (HS + PC, best efficacy at 0.5% and 1%) is recorded as “decrease in a dose dependent way”. Moreover, the “effect on basophil cells degranulation” value with basophil cells (HS alone at different concentration) is recorded as “no effect on basophil cells degranulation”. Besides, the “ROS Inhibition %” value in experiment [1] (1′30″ UVA, HS 0.031 mg/ml) turned out to be 25.3%; in experiment [1] (1′30″ UVA, HS 0.063 mg/ml) it was 25.4%; in experiment [1] (1′30″ UVA, HS 0.125 mg/ml) it was 23.5%; in experiment [1] (1′30″ UVA, HS 0.250 mg/ml) it was 28.0%; in experiment [1] (1′30″ UVA, HS 0.500 mg/ml), 30.6%; in experiment [1] (1′30″ UVA, HS 1.000 mg/ml), 38.7%. Moreover, the “ROS Inhibition %” value in experiment [1] (1′30″ UVA, HS 9.000 mg/ml) stood at 30.7%; in experiment [1] (3′00″ UVA, HS 0.031 mg/ml), 20.1%; in experiment [1] (3′00″ UVA, HS 0.063 mg/ml), 21.8%; in experiment [1] (3′00″ UVA, HS 0.125 mg/ml), 14.2%; in experiment [1] (3′00″ UVA, HS 0.250 mg/ml), 22.9%; in experiment [1] (3′00″ UVA, HS 0.500 mg/ml), 29.1%. For the same compound, the “ROS Inhibition %” value in experiment [1] (3′00″ UVA, HS 1.000 mg/ml) is 35.7%; in experiment [1] (3′00″ UVA, HS 9.000 mg/ml), 31.6%; in experiment [1] (4′30″ UVA, HS 0.031 mg/ml), 6.2%; in experiment [1] (4′30″ UVA, HS 0.063 mg/ml), 13.7%; in experiment [1] (4′30″ UVA, HS 0.125 mg/ml) it was 10.3%; in experiment [1] (4′30″ UVA, HS 0.250 mg/ml), 18.1%. Moreover, the “ROS Inhibition %” value in experiment [1] (4′30″ UVA, HS 0.500 mg/ml) is recorded as 24.7%; in experiment [1] (4′30″ UVA, HS 1.000 mg/ml), 30.4%; in experiment [1] (4′30″ UVA, HS 9.000 mg/ml), 26.3%. Further, the “antioxidant efficacy compared with Vitamin C” value in experiment [1] (HS at 0.1% concentration) is given as “comparable or even higher than the efficacy of Vitamin C”. In addition, the “% cell proliferation vs NC” value with fibroblast cells (48 h, HS 0.05 mg/ml (0.005%)) was 106.7%; in the experiment with fibroblast cells (48 h, HS 0.1 mg/ml (0.01%)), 110.5%; in the experiment on fibroblast cells (72 h, HS 0.05 mg/ml (0.005%)), 118.2%; with fibroblast cells (72 h, HS 0.1 mg/ml (0.01%)), 118.1%. For the same compound, the “% protein synthesis vs NC” value in the experiment with fibroblast cells (48 h, HS 0.05 mg/ml (0.005%)) came to 110.2%; with fibroblast cells (48 h, HS 0.1 mg/ml (0.01%)) it was 103.1%; in the experiment on fibroblast cells (72 h, HS 0.05 mg/ml (0.005%)), 120.4%; in the experiment on fibroblast cells (72 h, HS 0.1 mg/ml (0.01%)) it was 113.2%. Also, the “highest effect for cell proliferation (increase over NC)” value in the experiment on fibroblast cells (72 hour, 0.05 mg/ml) is reported as 18.2%. In addition, in the experiment on fibroblast cells (72 hour, 0.05 mg/ml), the “highest effect for protein synthesis (increase over NC)” value came to 20.4%.
